# Experimental data from patent US10464904B2, “Dextrorphan-derivatives with suppressed central nervous activity” (Heinrich-Heine-Universität Düsseldorf, priority 2015, dated 2019).
# Assay: Rotarod test, time on rod
# Assay type: in vivo, C57BL/6 mice
# Settings: mice, 30 minutes after i.p. injection
# Experimental: FIG. 6: Time that C57BL/6 mice stayed on rod 30 minutes after i.p. injection of PBS without (control) or with either 50 μg g^−1 body weight DXO or 100 μg g^−1 body weight compound (4); n=5 male mice each. Significance determined by Student's t-test. *P<0.05. All values are mean±SD.
smiles,measurement,value
"CN1CC[C@@]23CCCC[C@@H]2[C@@H]1Cc1ccc(O)cc13 [dextrorphan, (+)-17-methyl-9α,13α,14α-morphinan-3-ol]",coordination deficits in rotarod test,does
